≈ marks a conversion by molar mass, not a printed value. Where “and” joins values, the source holds several entries; their conditions need not be identical. Equal entries are not always repeated.
Experiments:
Experiment in all cases: ≥ marks a high value that may be exact or a test limit, other limits are often not marked, values filed in µg/mL are converted to µM
[1] = test system: Acinetobacter baumannii ATCC 19606
[2] = test system: Klebsiella pneumoniae ATCC 13883
[3] = test system: Acinetobacter baumannii
[4] = test system: Escherichia coli
[5] = test system: Staphylococcus aureus ATCC 25923
[6] = test system: Pseudomonas aeruginosa
[7] = test system: Klebsiella pneumoniae
[8] = test system: Escherichia coli ATCC 25922
[9] = test system: Staphylococcus aureus
[10] = test system: Pseudomonas aeruginosa ATCC 27853
[11] = test system: Bacillus cereus
[12] = test system: Enterococcus faecalis ATCC 29212
[13] = test system: Bacillus subtilis
[14] = test system: Salmonella enterica subsp. enterica serovar Typhimurium ATCC 14028
[15] = test system: Escherichia coli DH5alpha
[16] = test system: Pseudomonas aeruginosa CMCCB 10104
[17] = test system: Candida albicans ATCC 2002
[18] = test system: Pseudomonas aeruginosa PAO1

SMILES	MIC [2] [µM]	MIC [4] [µM]	MIC [5] [µM]	MIC [8] [µM]	MIC [11] [µM]	further results
CC[C@H](C)[C@H](NC(=O)[C@H](CCCCN)NC(=O)[C@H](CC(C)C)NC(=O)[C@H](C)NC(=O)[C@H](CCCCN)NC(=O)[C@H](CC(C)C)NC(=O)[C@H](C)NC(=O)CNC(=O)[C@H](CCCCN)NC(=O)[C@H](C)NC(=O)[C@@H](NC(=O)[C@@H](N)CCCCN)[C@@H](C)CC)C(=O)N[C@@H](C)C(=O)N[C@@H](CCCCN)C(=O)NCC(=O)N[C@@H](C)C(=O)N[C@@H](CC(C)C)C(=O)N[C@@H](CCCCN)C(=O)N[C@@H](C)C(=O)N[C@@H](CC(C)C)C(N)=O [KIAKGALKALKIAKGALKAL]	2.83 (≈ 5.67 µg/mL)	64 (≈ 128 µg/mL)	22.6 (≈ 45.4 µg/mL)	4 (≈ 8.02 µg/mL)		MIC [1]: 1.41 µM (≈ 2.84 µg/mL); MIC [3]: ≥ 64 µM; MIC [6]: 11.3 µM (≈ 22.7 µg/mL); MIC [7]: 8 µM (≈ 16 µg/mL); MIC [9]: 16 µM (≈ 32.1 µg/mL); MIC [10]: 11.3 µM (≈ 22.7 µg/mL)
CC(C)C[C@H](NC(=O)[C@@H](N)Cc1ccccc1)C(=O)NCC(=O)NCC(=O)N[C@H](C(=O)N[C@@H](Cc1ccccc1)C(=O)N[C@@H](CCCCN)C(=O)N[C@@H](CCCCN)C(=O)N[C@@H](C)C(=O)N[C@@H](CO)C(=O)N[C@@H](CCCCN)C(=O)N[C@H](C(=O)N[C@@H](Cc1ccccc1)C(=O)NCC(=O)N[C@@H](C)C(=O)N[C@H](C(=O)N[C@@H](Cc1ccccc1)C(=O)NCC(=O)N[C@@H](CCCCN)C(=O)N[C@H](C(=O)O)C(C)C)C(C)C)C(C)C)C(C)C [FLGGVFKKASKVFGAVFGKV]		15.3 (≈ 32 µg/mL)			≥ 61.3	MIC [9]: > 123 µM
CC[C@H](C)[C@H](NC(=O)CN)C(=O)NCC(=O)N[C@@H](CCCCN)C(=O)N[C@@H](C)C(=O)N[C@@H](CC(C)C)C(=O)N[C@@H](CCCCN)C(=O)N[C@@H](CCCCN)C(=O)N[C@@H](C)C(=O)N[C@@H](CCCCN)C(=O)N[C@@H](CCCCN)C(=O)NCC(=O)N[C@H](C(=O)NCC(=O)N[C@@H](C)C(=O)N[C@H](C(=O)N[C@@H](CC(C)C)C(=O)N[C@@H](CCCCN)C(=O)N[C@H](C(=O)N[C@@H](CC(C)C)C(=O)N[C@H](C(=O)N[C@H](C(=O)NCC(=O)N[C@@H](CC(C)C)C(=O)O)[C@@H](C)O)[C@@H](C)O)C(C)C)C(C)C)[C@@H](C)CC [GIGKALKKAKKGIGAVLKVLTTGL]	8 (≈ 18.9 µg/mL)		4 (≈ 9.46 µg/mL)			MIC [12]: 32 µM (≈ 75.7 µg/mL); MIC [13]: 8 µM (≈ 18.9 µg/mL); MIC [14]: 8 µM (≈ 18.9 µg/mL); MIC [15]: 15 µM (≈ 35.5 µg/mL); MIC [10]: 45 µM (≈ 106 µg/mL)
CC[C@H](C)[C@H](NC(=O)[C@@H](NC(=O)[C@H](CC(C)C)NC(=O)[C@H](C)NC(=O)[C@@H]1CCCN1C(=O)CNC(=O)[C@H](Cc1ccc(O)cc1)NC(=O)[C@@H](N)CCCCN)C(C)C)C(=O)N[C@@H](C)C(=O)N[C@H](C(=O)N[C@@H](CCCCN)C(=O)N[C@@H](CCCCN)C(=O)N[C@@H](CO)C(=O)N[C@@H](CS)C(=O)N[C@@H](CO)C(=O)N[C@@H](CC(C)C)C(=O)N[C@H](C(=O)N[C@@H](Cc1ccccc1)C(=O)N[C@@H](CCCN=C(N)N)C(=O)N[C@@H](C)C(=O)O)[C@@H](C)O)C(C)C [KYGPALVIAVKKSCSLTFRA]		> 119			≥ 119	
CC[C@H](C)[C@H](NC(=O)CN)C(=O)N[C@@H](CC(C)C)C(=O)N[C@@H](CO)C(=O)NCC(=O)N[C@H](C(=O)N[C@@H](CC(C)C)C(=O)NCC(=O)N[C@@H](CCSC)C(=O)NCC(=O)N[C@@H](CCCCN)C(=O)N[C@@H](CCCCN)C(=O)N[C@H](C(=O)N[C@H](C(=O)N[C@H]1CSSC[C@@H](C(=O)O)NC(=O)[C@H](CC(C)C)NC(=O)CNC(=O)[C@H](CO)NC(=O)[C@H](CC(C)C)NC(=O)CNC1=O)C(C)C)[C@@H](C)CC)C(C)C [GILSGVLGMGKKIVCGLSGLC]		25 (≈ 50.1 µg/mL)	4.39 (≈ 8.79 µg/mL)	2.19 (≈ 4.4 µg/mL)		MIC [16]: 4.39 µM (≈ 8.79 µg/mL); MIC [17]: 2.19 µM (≈ 4.4 µg/mL); MIC [9]: 50 µM (≈ 100 µg/mL)
CC(C)C[C@H](NC(=O)[C@H](CCCN=C(N)N)NC(=O)[C@H](CCCN=C(N)N)NC(=O)[C@H](C)NC(=O)[C@H](Cc1c[nH]c2ccccc12)NC(=O)CNC(=O)[C@H](CCCN=C(N)N)NC(=O)[C@@H](N)CCCN=C(N)N)C(=O)N[C@@H](C)C(=O)N[C@@H](Cc1ccccc1)C(=O)NCC(=O)N[C@@H](CCCN=C(N)N)C(=O)N[C@@H](CCCN=C(N)N)C(N)=O [RRGWARRLAFGRR]	30 (≈ 49.7 µg/mL)		> 30	> 30		MIC [1]: > 30 µM; MIC [18]: > 30 µM; MIC [14]: > 30 µM
CC[C@H](C)[C@H](NC(=O)[C@H](Cc1ccccc1)NC(=O)[C@H](CCCCN)NC(=O)[C@H](C)NC(=O)[C@H](CC(C)C)NC(=O)[C@H](CC(=O)O)NC(=O)[C@H](CCCCN)NC(=O)[C@@H](N)C(C)C)C(=O)N[C@@H](C)C(=O)N[C@@H](CCCCN)C(=O)N[C@H](C(=O)N[C@H](C(=O)N[C@@H](C)C(=O)N[C@@H](CCCCN)C(=O)N[C@@H](CCC(N)=O)C(=O)NCC(=O)NCC(=O)N[C@@H](CS)C(=O)N[C@@H](Cc1ccc(O)cc1)C(=O)N[C@@H](CC(C)C)C(=O)O)C(C)C)[C@@H](C)O [VKDLAKFIAKTVAKQGGCYL]		> 59.4			≥ 59.4	
CC[C@H](C)[C@@H]1NC(=O)[C@H](C)NC(=O)[C@@H](NC(=O)[C@H](Cc2ccccc2)NC(=O)[C@H](C)NC(=O)[C@@H](NC(=O)[C@@H]2CCCN2C(=O)[C@H](CC(C)C)NC(=O)[C@@H](NC(=O)[C@H](CC(N)=O)NC(=O)[C@H](C)NC(=O)[C@H](C)NC(=O)[C@@H](NC(=O)[C@H](CCCN=C(N)N)NC(=O)[C@@H](NC(=O)[C@@H](NC(=O)[C@H](C)NC(=O)[C@@H]2CCCN2C(=O)[C@H](CC(C)C)NC(=O)[C@@H](N)Cc2ccccc2)C(C)C)[C@@H](C)CC)C(C)C)C(C)C)[C@@H](C)O)CSSC[C@@H](C(=O)O)NC(=O)[C@H](CCCCN)NC(=O)[C@H](CCCCN)NC(=O)[C@H](CO)NC1=O [FLPAVIRVAANVLPTAFCAISKKC]			2.61 (≈ 6.59 µg/mL)	2.61 (≈ 6.59 µg/mL)		MIC [16]: 5.21 µM (≈ 13.2 µg/mL); MIC [17]: 1.3 µM (≈ 3.3 µg/mL)
CC[C@H](C)[C@H](NC(=O)[C@@H](NC(=O)[C@@H](NC(=O)[C@@H](NC(=O)[C@H](CCCN=C(N)N)NC(=O)[C@H](CCCCN)NC(=O)[C@@H](NC(=O)CNC(=O)[C@@H]1CCCN1C(=O)[C@@H](NC(=O)[C@H](CO)NC(=O)[C@H](Cc1ccccc1)NC(=O)[C@@H](NC(=O)CNC(=O)[C@H](C)NC(=O)[C@H](CC(C)C)NC(=O)[C@@H]1CCCN1C(=O)[C@H](Cc1ccccc1)NC(=O)[C@H](CCCCN)NC(=O)[C@@H](N)CO)[C@@H](C)CC)C(C)C)C(C)C)C(C)C)C(C)C)C(C)C)C(=O)O [SKFPLAGIFSVPGVKRVVVI]		> 121			≥ 121	
CC(C)C[C@H](NC(=O)[C@H](C)NC(=O)[C@H](Cc1c[nH]c2ccccc12)NC(=O)CNC(=O)[C@H](CCCN=C(N)N)NC(=O)[C@@H](N)CCCN=C(N)N)C(=O)N[C@@H](CCCN=C(N)N)C(=O)N1CCC[C@H]1C(=O)N[C@H](C(=O)N[C@@H](CC(C)C)C(=O)N[C@@H](C)C(=O)N[C@@H](Cc1ccccc1)C(=O)NCC(=O)N[C@@H](CCCN=C(N)N)C(=O)N[C@@H](CCCN=C(N)N)C(N)=O)C(C)C [RRGWALRPVLAFGRR]	30 (≈ 54.3 µg/mL)		> 30	> 30		MIC [1]: > 30 µM; MIC [18]: 14.8 µM and 30 µM; MIC [14]: > 30 µM
CC[C@H](C)[C@H](NC(=O)[C@@H](N)C(C)C)C(=O)N[C@H](C(=O)N[C@@H](Cc1ccccc1)C(=O)N[C@H](C(=O)N[C@@H](C)C(=O)N[C@@H](CO)C(=O)N[C@H](C(=O)N[C@@H](C)C(=O)N[C@@H](C)C(=O)N[C@@H](CCC(=O)O)C(=O)N[C@@H](CCSC)C(=O)N[C@@H](CCSC)C(=O)N[C@@H](CCC(N)=O)C(=O)N[C@@H](Cc1cnc[nH]1)C(=O)N[C@H](C(=O)N[C@@H](Cc1ccc(O)cc1)C(=O)N[C@H]1CSSC[C@@H](C(=O)O)NC(=O)[C@H](CCCCN)NC(=O)[C@H](CCCCN)NC(=O)[C@H](CO)NC(=O)[C@H](C)NC(=O)[C@H](C)NC1=O)C(C)C)C(C)C)C(C)C)C(C)C [VIVFVASVAAEMMQHVYCAASKKC]			4.79 (≈ 12.4 µg/mL)	2.4 (≈ 6.2 µg/mL)		MIC [16]: 4.79 µM (≈ 12.4 µg/mL); MIC [17]: 9.59 µM (≈ 24.8 µg/mL)
